# According to paper PMC8379256, “A xanthene derivative, DS20060511, attenuates glucose intolerance by inducing skeletal muscle-specific GLUT4 translocation in mice” (Communications Biology, 2021):
# “And” between values parts separate entries of the source, which are not always exact repeats. Identical values can stand only once.
# Experiments:
# Type in all cases: in vivo, mouse
# STZ-treated C57BL/6 mice = test: Insulin tolerance test (ITT) in STZ-treated C57BL/6 mice; conditions: for Blood glucose: ITT
# Method: Arrowheads indicate the characteristic ruffled structure of the polymerized actin and actin-associated surface GLUT4. d GLUT4 translocation activity of 30 μM DS20060511 or 100 nM insulin in the presence of the actin polymerization inhibitor, Latrunculin B, at the indicated concentrations. Values shown are means ± SEM, n = 3. **P < 0.01 vs. 0 nM Latrunculin B by one-way ANOVA followed by Dunnett’s test. e Concentration-dependent insulin-stimulated GLUT4 translocation in L6-GLUT4myc myotubes with or without 30 μM DS20060511 (n = 3). f Concentration-dependent DS20060511-stimulated 2-DG uptake with 100 nM insulin in isolated muscles from C57BL/6 mice (n = 3). Values shown are means ± SEM. ***P < 0.001 by one-way ANOVA followed by Tukey’s test. g Blood glucose levels during ITT in STZ-treated C57BL/6 mice (n = 6–7). Vehicle or indicated dose of DS20060511 was given orally at the same time as 0.1 U kg^−1 insulin injection intraperitoneally. Values shown are means ± SEM. *P < 0.05 vs. vehicle by one-way ANOVA followed by Dunnett’s test. c Scale bar in all panels, 5 μm. Uncropped blots for a and b can be found in Supplementary Fig. 6.
# C57BL/6 mice deprived of access to food overnight received an intraperitoneal injection of STZ (125 mg kg^−1) and a repeat injection a week later. Thereafter, their blood glucose levels were monitored and insufficient mice (blood glucose levels of under 400 mg dL^−1 or blood glucose levels after overnight food deprivation of under 200 mg dL^−1) were excluded from the experiment. Blood glucose levels were measured using Glutest Every (Sanwa Kagaku Kenkyusho, Nagoya, Japan) in blood samples collected from the tail vein.
# Mice received the indicated oral dose of DS20060511 or vehicle at the same time as the intraperitoneal injection of insulin (Humulin) at the indicated dose. Blood glucose levels were measured using Glutest Every in blood samples collected from the tail vein at the indicated timepoints.
# db/db mice = test: Repeated (28-day) DS20060511 treatment of db/db mice; set-up: Blood glucose after refeeding AUC: unit not given here; conditions: for Blood glucose after refeeding / Blood glucose after refeeding AUC: db/db
# Method: db/db mice were acclimatized to a 6 h restricted feeding pattern from 10 am to 4 pm prior to the start of the experiment. For 28 days from 6 weeks of age, the mice received oral administration of 10 mg kg^−^1 of DS20060511 or vehicle once a day, 15 min prior to their feeding. On day 1 and day 28, the blood glucose levels were measured between 10 am to 4 pm. Blood glucose levels were measured using Glutest Every in blood samples collected from the tail vein. Daily food intake was monitored throughout the study, and the body weight, blood glucose, and plasma insulin were measured on day 1 and day 28. The hemoglobin A1c (HbA1c) level was also measured with a HLC-723G8 Automated Glycohemoglobin Analyzer on day 1 and day 28 (Tosoh, Tokyo, Japan). The triceps surae muscle (skeletal muscle), heart, epididymal WAT, and liver were excised immediately after euthanasia, and the tissue weights were measured on day 29. The glycogen contents of the muscle, heart, and liver were measured as described previously,[52] with some modifications. In brief, each tissue sample (50–100 mg) was weighed and boiled in 0.75 mL of 8 M KOH. After cooling, 0.25 mL of 1 M Na2SO4, followed by 2 mL of 99.5% ethanol, was added to precipitate the glycogen. The samples were centrifuged and the glycogen precipitates were dissolved in distilled water. Glycogen was degraded to glucose by treatment with amyloglucosidase (Sigma–Aldrich) at 55 °C for 60 min, and the glucose concentration was determined with Glucose CII Test Wako (FUJIFILM Wako Pure Chemical).
# C57BL/6 mice = test: Indirect calorimetry under the oral glucose tolerance test; conditions: oral GTT; 30 mg/kg po; 1 h after glucose load
# Description: In the revised manuscript, we have added references
# 154–156. We think that the reference, PMID: 23349504, is not suitable for this context, because this […]
# What is the faith of the glucose in response to DS20060511? Is it oxidized or stored as glycogen? Does it produce excessive oxidative stress? Please include such important measures.
# Response: Thank you for your question. We agree that such information is important. In the revised manuscript, we have added data on the glycogen contents of the skeletal muscle, heart, and liver after 28 days of DS20060511 treatment in db/db mice, in Supplementary Fig. 5c and lines 241–243, as […]
# liver, or in the glycogen contents of the muscle, heart, and liver (Supplementary Fig. 5b, c).” The […]
# oxidized, and not stored as glycogen. We, however, regret not assessing the level of oxidative stress in the skeletal muscles of the db/db mice. To determine whether DS20060511 treatment might produce excessive oxidative stress, the data of indirect calorimetry under GTT in B6 mice may be […]
# produce excessive oxidative stress, at least at the whole-body level in the normal state.
# Indirect calorimetry under the oral glucose tolerance test. C57BL/6 mice (n = 6) that had been denied access to food overnight received oral administration of 30 […]
# glucose load (1.5 g kg-1). Indirect calorimetry was performed for 1 h after the glucose load. […]
# [1] = db/db mice, 10 mg/kg, Day 1, individual animals, 10 mg/kg
# [2] = db/db mice, 10 mg/kg, Day 28, individual animals, 10 mg/kg
smiles,measurement,setting,value
COc1ccc2c(C)c(C(=O)O)ccc2c1C1C2=C(CC(C)(C)CC2=O)OC2=C1C(=O)CC(C)(C)C2 [DS20060511],Blood glucose,"STZ-treated C57BL/6 mice; 10 mg/kg po with 0.1 U kg−1 insulin ip, 0 min, 10 mg/kg",516 mg/dL and 430 mg/dL and 520 mg/dL and 493 mg/dL and 480 mg/dL and 526 mg/dL
same,Blood glucose,"STZ-treated C57BL/6 mice; 10 mg/kg with insulin, 20 min, 10 mg/kg",427 mg/dL and 401 mg/dL and 313 mg/dL and 397 mg/dL and 311 mg/dL and 432 mg/dL
same,Blood glucose,"STZ-treated C57BL/6 mice; 30 mg/kg po with 0.1 U kg−1 insulin ip, 0 min, 30 mg/kg",433 mg/dL and 472 mg/dL and 458 mg/dL and 427 mg/dL and 461 mg/dL and 483 mg/dL and 532 mg/dL
same,"blood glucose levels, combined with insulin vs insulin alone (in words)","STZ-treated C57BL/6 mice; STZ-treated mice, Fig. 4g",reduced to a greater degree
same,visible sign of toxicity,db/db mice; 28-day repeated-dose study in db/db mice,did not find any visible sign of toxicity
same,Body weight (g) Day 1,db/db mice; [1],25.2 g and 26.3 g and 27.7 g and 27.0 g and 28.4 g
same,Glucose (mg/dl) Day 1,db/db mice; [1],122 mg/dL and 152 mg/dL and 138 mg/dL and 136 mg/dL and 89 mg/dL and 180 mg/dL
same,Insulin (ng/ml) Day 1,db/db mice; [1],2.27 ng/mL and 4.08 ng/mL and 4.23 ng/mL and 4.25 ng/mL and 2.30 ng/mL and 3.38 ng/mL
same,Body weight (g) Day 28,db/db mice; [2],37.0 g and 39.8 g and 40.4 g and 39.6 g and 39.4 g and 41.1 g
same,Glucose (mg/dl) Day 28,db/db mice; [2],167 mg/dL and 157 mg/dL and 194 mg/dL and 145 mg/dL and 132 mg/dL and 155 mg/dL
same,Insulin (ng/ml) Day 28,db/db mice; [2],7.52 ng/mL and 5.68 ng/mL and 8.16 ng/mL and 6.98 ng/mL and 8.68 ng/mL and 6.72 ng/mL
same,Tissue weight (g) WAT,"db/db mice; db/db mice, 10 mg/kg, WAT, individual animals",1.93 g and 2.01 g and 2.15 g and 1.84 g and 1.69 g and 2.14 g
same,Tissue weight (g) Heart,"db/db mice; db/db mice, 10 mg/kg, heart, individual animals",0.11 g and 0.10 g
same,Tissue weight (g) Liver,"db/db mice; db/db mice, 10 mg/kg, liver, individual animals",1.31 g and 1.43 g and 1.57 g and 1.42 g and 1.77 g
same,Tissue weight (g) Muscle,"db/db mice; db/db mice, 10 mg/kg, muscle, individual animals",0.17 g and 0.18 g
same,HbA1c (%) Afrer,"db/db mice; db/db mice, DS20060511 10 mg/kg, after repeated treatment, individual animals, 10 mg/kg",3.6% and 3.4% and 3.3% and 3.8%
same,HbA1c (%) Delta,"db/db mice; db/db mice, DS20060511 10 mg/kg, change from pre to after, individual animals, 10 mg/kg",0.38% and 0.35% and 0.34% and 0.46% and 0.33% and 0.7%
same,HbA1c (%) Pre,"db/db mice; db/db mice, DS20060511 10 mg/kg, pre treatment (baseline), individual animals, 10 mg/kg",3.2% and 3.3% and 3.1% and 2.9%
same,blood glucose levels (in words),"db/db mice; db/db mice, 10 mg kg−1 day−1, day 1 to day 28",decreased significantly
same,"tissue weights of muscle, heart, WAT, liver; glycogen contents of muscle, heart, liver","db/db mice; db/db mice, 28-day treatment",no significant changes
same,hemoglobin A1c (HbA1c) value (in words),"db/db mice; db/db mice, chronic treatment, 4 weeks",significantly reduced
same,"body weight, food intake, fasting blood glucose level, fasting plasma insulin levels","db/db mice; db/db mice, vs vehicle",no statistically significant differences
same,Blood glucose after refeeding,"db/db mice; 10 mg/kg, Day 1, 0 hr, individual animals, 10 mg/kg",91 mg/dL and 54 mg/dL and 72 mg/dL and 70 mg/dL and 85 mg/dL and 96 mg/dL
same,Blood glucose after refeeding,"db/db mice; 10 mg/kg, Day 1, 0.5 hr, individual animals, 10 mg/kg",138 mg/dL and 112 mg/dL and 86 mg/dL and 108 mg/dL and 117 mg/dL and 130 mg/dL
same,Blood glucose after refeeding,"db/db mice; 10 mg/kg, Day 1, 1 hr, individual animals, 10 mg/kg",162 mg/dL and 145 mg/dL and 120 mg/dL and 136 mg/dL and 126 mg/dL and 147 mg/dL
same,Blood glucose after refeeding,"db/db mice; 10 mg/kg, Day 1, 2 hr, individual animals, 10 mg/kg",220 mg/dL and 154 mg/dL and 182 mg/dL and 126 mg/dL and 135 mg/dL and 171 mg/dL
same,Blood glucose after refeeding,"db/db mice; 10 mg/kg, Day 1, 4 hr, individual animals, 10 mg/kg",189 mg/dL and 177 mg/dL and 142 mg/dL and 139 mg/dL and 179 mg/dL and 259 mg/dL
same,Blood glucose after refeeding,"db/db mice; 10 mg/kg, Day 1, 6 hr, individual animals, 10 mg/kg",261 mg/dL and 247 mg/dL and 262 mg/dL and 136 mg/dL and 157 mg/dL and 294 mg/dL
same,Blood glucose after refeeding,"db/db mice; 10 mg/kg, Day 1, -0.25 hr, individual animals, 10 mg/kg",124 mg/dL and 77 mg/dL and 78 mg/dL and 106 mg/dL and 118 mg/dL
same,Blood glucose after refeeding AUC,"db/db mice; 10 mg/kg, Day 1, individual animals, 10 mg/kg",1236.0 and 1043.0 and 1019.0 and 813.5 and 939.5 and 1321.3
same,Blood glucose after refeeding,"db/db mice; 10 mg/kg, Day 28, 0 hr, individual animals, 10 mg/kg",140 mg/dL and 130 mg/dL and 193 mg/dL and 159 mg/dL and 136 mg/dL
same,Blood glucose after refeeding,"db/db mice; 10 mg/kg, Day 28, 0.5 hr, individual animals, 10 mg/kg",171 mg/dL and 147 mg/dL and 157 mg/dL and 168 mg/dL and 130 mg/dL and 217 mg/dL
same,Blood glucose after refeeding,"db/db mice; 10 mg/kg, Day 28, 1 hr, individual animals, 10 mg/kg",187 mg/dL and 108 mg/dL and 139 mg/dL and 164 mg/dL and 142 mg/dL and 240 mg/dL
same,Blood glucose after refeeding,"db/db mice; 10 mg/kg, Day 28, 2 hr, individual animals, 10 mg/kg",230 mg/dL and 128 mg/dL and 167 mg/dL and 182 mg/dL and 163 mg/dL and 274 mg/dL
same,Blood glucose after refeeding,"db/db mice; 10 mg/kg, Day 28, 4 hr, individual animals, 10 mg/kg",256 mg/dL and 306 mg/dL and 290 mg/dL and 274 mg/dL and 297 mg/dL and 345 mg/dL
same,Blood glucose after refeeding,"db/db mice; 10 mg/kg, Day 28, 6 hr, individual animals, 10 mg/kg",334 mg/dL and 357 mg/dL and 336 mg/dL and 316 mg/dL and 282 mg/dL and 356 mg/dL
same,Blood glucose after refeeding,"db/db mice; 10 mg/kg, Day 28, -0.25 hr, individual animals, 10 mg/kg",157 mg/dL and 175 mg/dL and 184 mg/dL and 155 mg/dL and 151 mg/dL and 135 mg/dL
same,Blood glucose after refeeding AUC,"db/db mice; 10 mg/kg, Day 28, individual animals, 10 mg/kg",1526.0 and 1424.3 and 1491.8 and 1462.3 and 1397.8 and 1875.8
same,VO2,C57BL/6 mice,no change in the VO2
